According to ChEMBL document CHEMBL1201862, “PubChem BioAssay data set” (2004):
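Values below derive from 48-hour exposures of cells grown in 96-well plates, with endpoints linearly interpolated between the two concentrations bracketing the appropriate inhibition level. At the GI50, growth is halved.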 Activity calls are given as the source filed them. No stated cut-off is given here; in the data, active = GI50 up to about 1.1 µM and inactive = higher.

Experiments:
Assay in all cases: NCI tumour cell line growth inhibition, 48 h
RXF 393 = test system: RXF 393
A498 = test system: A498
UACC-257 = test system: UACC-257
OVCAR-5 = test system: OVCAR-5
HCT-116 = test system: HCT-116
HCT-15 = test system: HCT-15
CCRF-CEM = test system: CCRF-CEM
OVCAR-3 = test system: OVCAR-3
LOX IMVI = test system: LOX IMVI
HT-29 = test system: HT-29
RPMI-8226 = test system: RPMI-8226
PC-3 = test system: PC-3
ACHN = test system: ACHN
SK-MEL-2 = test system: SK-MEL-2
EKVX = test system: EKVX
NCI-H522 = test system: NCI-H522
HL-60 = test system: HL-60
IGROV-1 = test system: IGROV-1
KM12 = test system: KM12
SNB-75 = test system: SNB-75

Structure (SMILES) | GI50 (RXF 393) | GI50 (A498) | GI50 (UACC-257) | GI50 (OVCAR-5) | GI50 (HCT-116) | GI50 (HCT-15) | GI50 (CCRF-CEM) | GI50 (OVCAR-3) | GI50 (LOX IMVI) | GI50 (HT-29) | GI50 (RPMI-8226) | GI50 (PC-3) | GI50 (ACHN) | GI50 (SK-MEL-2) | GI50 (EKVX) | GI50 (NCI-H522) | GI50 (HL-60) | GI50 (IGROV-1) | GI50 (KM12) | GI50 (SNB-75)
CCOC(=O)C(Cc1ccc(N(CCCl)CCCl)cc1)NC(=O)C(Cc1ccccc1)NC=O (stereo unspecified) | 0.0614 µM (active) | 0.273 µM (active) | 0.24 µM (active) | 0.337 µM (active) | 0.286 µM (active) | 0.29 µM | 0.0526 µM (active) | 0.147 µM (active) | 0.0713 µM (active) | 0.142 µM (active) | 0.187 µM (active) | 0.27 µM (active) | 0.00959 µM (active) | 0.161 µM (active) | 0.332 µM (active) | 0.117 µM (active) | 0.0638 µM (active) | 0.0492 µM (active) | 0.48 µM (active) | –
CN(C)Cc1cc(C(=O)/C=C/c2ccccc2Cl)cc(CN(C)C)c1O | 17.1 µM (inactive) | 12.9 µM (inactive) | 15.4 µM (inactive) | 23.1 µM (inactive) | 5.42 µM (inactive) | 14.7 µM | 3.4 µM (inactive) | 7.93 µM (inactive) | 3.33 µM (inactive) | 3.13 µM (inactive) | 13.8 µM (inactive) | 13.2 µM (inactive) | 4.45 µM (inactive) | – | 14.7 µM (inactive) | 3.93 µM (inactive) | 4.3 µM (inactive) | 13.6 µM (inactive) | 7.8 µM (inactive) | 5.51 µM (inactive)
CCS(=O)(=O)CCn1cnc2c1c(=O)n(C)c(=O)n2C | > 100 µM (inactive) | > 100 µM (inactive) | > 100 µM (inactive) | > 100 µM (inactive) | > 100 µM (inactive) | > 100 µM | > 100 µM (inactive) | > 100 µM (inactive) | > 100 µM (inactive) | > 100 µM (inactive) | – | > 100 µM (inactive) | > 100 µM (inactive) | > 100 µM (inactive) | > 100 µM (inactive) | > 100 µM (inactive) | > 100 µM (inactive) | > 100 µM (inactive) | > 100 µM (inactive) | > 100 µM (inactive)
COc1cc(-c2c(C#N)c(N)c(C#N)c3c2COc2ccccc2-3)cc(OC)c1OC | 16.4 µM (inactive) | 39.3 µM (inactive) | > 100 µM (inactive) | > 100 µM (inactive) | > 49.4 µM (inactive) | > 100 µM | > 100 µM (inactive) | > 42.8 µM (inactive) | 39.2 µM (inactive) | > 30.6 µM (inactive) | > 22.9 µM (inactive) | > 25.6 µM (inactive) | 27.8 µM (inactive) | 22.6 µM (inactive) | 25.6 µM (inactive) | 84.1 µM (inactive) | > 100 µM (inactive) | 26.7 µM (inactive) | > 100 µM (inactive) | –
